What all share (format): functional, organism-based
Assay [1] relates to Plasmodium falciparum. The assay is described as follows: Antimalarial activity against Plasmodium falciparum W2.
In assay [2] the test system is Plasmodium falciparum. Nature of the assay: Antimalarial activity against Plasmodium falciparum D6.
Assay [3] deals with Plasmodium falciparum. Nature of the assay: Antimalarial activity against Plasmodium falciparum TM91C235.
Setting [4] is: Plasmodium falciparum, TM91C235.

`CC(=O)O[C@H]1C[C@H]2[C@@H](CC[C@@H]3CC4(CC[C@@]32C)OOC2(CCC(C)CC2)OO4)[C@@H]2CC[C@H]([C@H](C)CCC(N)=O)[C@@]12C` (stereo in doubt; 13): the IC50 is 19.4 nM in the assay on Plasmodium falciparum [1], 22.9 nM with Plasmodium falciparum [2] and 28 nM with Plasmodium falciparum [3]. Besides, the IC90 came to 118 nM in the assay on Plasmodium falciparum [1], 31.4 nM in the assay on Plasmodium falciparum [2] and 53.5 nM with Plasmodium falciparum [3].
As for `CC(=O)O[C@H]1C[C@H]2[C@@H](CC[C@@H]3CC4(CC[C@@]32C)OOC2(CCCCC2)OO4)[C@@H]2CC[C@H]([C@H](C)CCC(N)=O)[C@@]12C`, the IC50 with Plasmodium falciparum [1] (Plasmodium falciparum, W2) is 19.1 nM; with Plasmodium falciparum [2] (Plasmodium falciparum, D6), 32.7 nM; in the assay with Plasmodium falciparum [3] (setting [4]) it was 40.9 nM. Besides, the 90% effect concentration (IC90) in the assay with Plasmodium falciparum [1] (Plasmodium falciparum, W2) came out at 35.6 nM; with Plasmodium falciparum [2] (Plasmodium falciparum, D6), 50.4 nM; in the assay on Plasmodium falciparum [3] (setting [4]), 76.7 nM.
Take `CCN(CC)CCCC(C)Nc1ccnc2cc(Cl)ccc12` (configuration not stated) [CHLOROQUINE]: the IC90 came to 349 nM in the assay on Plasmodium falciparum [1] (Plasmodium falciparum, W2) and 13.7 nM with Plasmodium falciparum [2] (Plasmodium falciparum, D6).
For `CC(=O)O[C@H]1C[C@H]2[C@@H](CC[C@@H]3CC4(CC[C@@]32C)OOC2(CCCCC2)OO4)[C@@H]2CC[C@H]([C@H](C)CCC(=O)Nc3ccccc3)[C@@]12C`, the IC50 is 81.6 nM in the assay on Plasmodium falciparum [1] (Plasmodium falciparum, W2) and 133 nM in the assay on Plasmodium falciparum [2] (Plasmodium falciparum, D6). In addition, the IC90 with Plasmodium falciparum [1] (Plasmodium falciparum, W2) is 195 nM; in the assay on Plasmodium falciparum [2] (Plasmodium falciparum, D6) it was 195 nM.
Take `CC(=O)O[C@H]1C[C@H]2[C@@H](CC[C@@H]3CC4(CC[C@@]32C)OOC2(CCCCC2)OO4)[C@@H]2CC[C@H]([C@H](C)CCC(=O)O)[C@@]12C`: in the assay on Plasmodium falciparum [1] (Plasmodium falciparum, W2), the IC50 turned out to be 93.9 nM and it took 178 nM to reach the 90% level (IC90). In the assay on Plasmodium falciparum [2] (Plasmodium falciparum, D6), this compound came in with an IC50 of 107 nM and an IC90 of 310 nM.
The matching figures for `COC(=O)CC[C@@H](C)[C@H]1CC[C@H]2[C@@H]3CC[C@@H]4CC5(CC[C@]4(C)[C@H]3C[C@H](OC(C)=O)[C@]12C)OOC1(CCCCC1)OO5`: 112 nM, 170 nM, 201 nM and 258 nM.
Take `CC(=O)O[C@H]1C[C@H]2[C@@H](CC[C@@H]3CC4(CC[C@@]32C)OOC2(CCCCC2)OO4)[C@@H]2CC[C@H]([C@H](C)CCC(=O)N3CCCCC3)[C@@]12C`: the IC50 in the assay with Plasmodium falciparum [1] (Plasmodium falciparum, W2) is 55.5 nM; with Plasmodium falciparum [2] (Plasmodium falciparum, D6) it was 106 nM; in the assay with Plasmodium falciparum [3] (setting [4]), 84.7 nM. Moreover, the 90% effect concentration (IC90) in the assay with Plasmodium falciparum [1] (Plasmodium falciparum, W2) was 78.6 nM; in the assay on Plasmodium falciparum [2] (Plasmodium falciparum, D6), 131 nM; in the assay with Plasmodium falciparum [3] (setting [4]), 125 nM.
Consider `COC(=O)CC[C@@H](C)[C@H]1CC[C@H]2[C@@H]3CC[C@@H]4CC5(CC[C@]4(C)[C@H]3C[C@H](OC(C)=O)[C@]12C)OOC1(CCC(C)CC1)OO5` (stereo in doubt; 3b), for which the IC50 in the assay on Plasmodium falciparum [1] (Plasmodium falciparum, W2) stood at 34.2 nM; with Plasmodium falciparum [2] (Plasmodium falciparum, D6) it was 39.2 nM; in the assay with Plasmodium falciparum [3] (setting [4]), 42.4 nM. Moreover, the IC90 in the assay on Plasmodium falciparum [1] (Plasmodium falciparum, W2) is 49.3 nM; in the assay on Plasmodium falciparum [2], 26 nM; in the assay on Plasmodium falciparum [3] (setting [4]) it was 74.9 nM.
In the case of `CCCN(CCC)C(=O)CC[C@@H](C)[C@H]1CC[C@H]2[C@@H]3CC[C@@H]4CC5(CC[C@]4(C)[C@H]3C[C@H](OC(C)=O)[C@]12C)OOC1(CCCCC1)OO5`, the IC50 with Plasmodium falciparum [1] (Plasmodium falciparum, W2) turned out to be 150 nM; with Plasmodium falciparum [2] (Plasmodium falciparum, D6), 179 nM; in the assay on Plasmodium falciparum [3] (setting [4]), 169 nM. Besides, the IC90 with Plasmodium falciparum [1] (Plasmodium falciparum, W2) stood at 169 nM; in the assay with Plasmodium falciparum [2] (Plasmodium falciparum, D6), 197 nM; in the assay on Plasmodium falciparum [3] (setting [4]), 203 nM.
As to `COC(=O)CC[C@@H](C)[C@H]1CC[C@H]2[C@@H]3CC[C@@H]4CC5(CC[C@]4(C)[C@H]3C[C@H](OC(C)=O)[C@]12C)OOC1(CCC(C)CC1)OO5` (stereo in doubt; 3c), the IC50 in the assay with Plasmodium falciparum [1] worked out at 38.3 nM; in the assay with Plasmodium falciparum [2], 38 nM; in the assay on Plasmodium falciparum [3], 50.8 nM. In addition, the IC90 in the assay on Plasmodium falciparum [1] stood at 80.3 nM; with Plasmodium falciparum [2], 62.9 nM; in the assay on Plasmodium falciparum [3], 77.3 nM.
On to `CC(=O)O[C@H]1C[C@H]2[C@@H](CC[C@@H]3CC4(CC[C@@]32C)OOC2(CCC(C)CC2)OO4)[C@@H]2CC[C@H]([C@H](C)CCC(=O)O)[C@@]12C` (stereo in doubt; 4b), for which the IC50 with Plasmodium falciparum [1] turned out to be 12.1 nM; in the assay with Plasmodium falciparum [2] (Plasmodium falciparum, D6) it was 11.6 nM; in the assay on Plasmodium falciparum [3] (setting [4]) it was 19.9 nM. In addition, the IC90 came to 84.8 nM in the assay with Plasmodium falciparum [1] (Plasmodium falciparum, W2); 17.1 nM with Plasmodium falciparum [2] (Plasmodium falciparum, D6); 47 nM in the assay with Plasmodium falciparum [3] (setting [4]).
As for `CC(=O)O[C@H]1C[C@H]2[C@@H](CC[C@@H]3CC4(CC[C@@]32C)OOC2(CCCCC2)OO4)[C@@H]2CC[C@H]([C@H](C)CCC(=O)NN)[C@@]12C`, the IC50 was 347 nM with Plasmodium falciparum [1] (Plasmodium falciparum, W2); 347 nM in the assay on Plasmodium falciparum [2] (Plasmodium falciparum, D6); 347 nM with Plasmodium falciparum [3] (setting [4]).
For `CC(=O)O[C@H]1C[C@H]2[C@@H](CC[C@@H]3CC4(CC[C@@]32C)OOC2(CCC(C)CC2)OO4)[C@@H]2CC[C@H]([C@H](C)CCC(=O)O)[C@@]12C` (stereo in doubt; 4c), the IC50 in the assay on Plasmodium falciparum [1] came to 42.2 nM; in the assay with Plasmodium falciparum [2] it was 19.2 nM; in the assay with Plasmodium falciparum [3] it was 31.8 nM. Moreover, the IC90 stood at 89.7 nM in the assay with Plasmodium falciparum [1], 31.7 nM in the assay with Plasmodium falciparum [2] and 93 nM in the assay with Plasmodium falciparum [3].
Consider `CC(=O)O[C@H]1C[C@H]2[C@@H](CC[C@@H]3CC4(CC[C@@]32C)OOC2(CCC(C)CC2)OO4)[C@@H]2CC[C@H]([C@H](C)CCC(=O)Nc3ccccc3)[C@@]12C` (stereo in doubt; 18), for which the IC50 was determined as 23.1 nM in the assay with Plasmodium falciparum [1], 23.3 nM in the assay with Plasmodium falciparum [2] and 32.9 nM with Plasmodium falciparum [3]. Also, the IC90 in the assay on Plasmodium falciparum [1] (Plasmodium falciparum, W2) turned out to be 38.9 nM; in the assay with Plasmodium falciparum [2], 33.7 nM; in the assay on Plasmodium falciparum [3] it was 42.7 nM.
In the case of `CC(=O)O[C@H]1C[C@H]2[C@@H]([C@H](OC(C)=O)C[C@@H]3CC4(CC[C@@]32C)OOC2(CCCCC2)OO4)[C@@H]2CC[C@H]([C@H](C)CCC(=O)Nc3ccccc3)[C@@]12C`, the IC50 is 11.2 nM in the assay on Plasmodium falciparum [1] (Plasmodium falciparum, W2); 6.7 nM with Plasmodium falciparum [2] (Plasmodium falciparum, D6); 10.3 nM in the assay on Plasmodium falciparum [3] (setting [4]). For the same compound, the IC90 in the assay on Plasmodium falciparum [1] (Plasmodium falciparum, W2) stood at 25.9 nM; in the assay on Plasmodium falciparum [2] (Plasmodium falciparum, D6), 11.7 nM; with Plasmodium falciparum [3] (setting [4]) it was 27.8 nM.
Turning to `C[C@@H]1CC[C@H]2[C@@H](C)C(=O)O[C@@H]3O[C@@]4(C)CC[C@@H]1[C@]32OO4` [ARTEMISININ], the IC50 with Plasmodium falciparum [1] (Plasmodium falciparum, W2) amounted to 6.7 nM; with Plasmodium falciparum [2] (Plasmodium falciparum, D6) it was 9 nM; with Plasmodium falciparum [3] (setting [4]) it was 13 nM. Besides, the IC90 in the assay on Plasmodium falciparum [1] (Plasmodium falciparum, W2) stood at 11.5 nM; in the assay on Plasmodium falciparum [2] (Plasmodium falciparum, D6) it was 12.8 nM; with Plasmodium falciparum [3] (setting [4]) it was 17.4 nM.
With `CCCNC(=O)CC[C@@H](C)[C@H]1CC[C@H]2[C@@H]3CC[C@@H]4CC5(CC[C@]4(C)[C@H]3C[C@H](OC(C)=O)[C@]12C)OOC1(CCC(C)CC1)OO5` (stereo in doubt; 14), the IC50 was determined as 10.1 nM in the assay with Plasmodium falciparum [1], 9.81 nM in the assay with Plasmodium falciparum [2] and 12.3 nM in the assay on Plasmodium falciparum [3]. Besides, the IC90 in the assay with Plasmodium falciparum [1] (Plasmodium falciparum, W2) is 30.5 nM; in the assay on Plasmodium falciparum [2] (Plasmodium falciparum, D6), 20.2 nM; in the assay with Plasmodium falciparum [3], 23.4 nM.
In the case of `O[C@@H](c1cc(C(F)(F)F)nc2c(C(F)(F)F)cccc12)[C@H]1CCCCN1` [MEFLOQUINE], the IC90 was 8.41 nM with Plasmodium falciparum [1] (Plasmodium falciparum, W2); 21.6 nM in the assay with Plasmodium falciparum [2] (Plasmodium falciparum, D6); 65.7 nM with Plasmodium falciparum [3] (setting [4]).

For the origin of these results see ChEMBL document CHEMBL1148828, “Deoxycholic acid-derived tetraoxane antimalarials and antiproliferatives(1)” (J Med Chem, 2007).
